Read-outs that look alike come from different tables or passages of the source.
Key:
[1] = system: barnyardgrass (Echinochloa crus-galli); assay: Test A pre/postemergence; assay type: in vivo; details: for pest or weed control at 125 g/ha / pest or weed control at 500 g/ha: Echinochloa crus-galli, 240 h, read-out: Plant response rating, Barnyardgrass
Method in brief: (§1)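 Ratings: 0 = no effect, 100 = complete control, assessed visually about ten days post-treatment in a greenhouse. Applications: soil-directed preemergence spray and postemergence spray on 1- to 2-leaf plants, both using a surfactant-containing non-phytotoxic solvent formulation.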

[2] = system: giant foxtail (Setaria faberi); assay: Test A pre/postemergence; assay type: in vivo; details: for pest or weed control at 125 g/ha / pest or weed control at 500 g/ha: Setaria faberi, 240 h, read-out: Plant response rating, Foxtail, Giant
Method in brief: as §1

[3] = post-emergence, Postemergence, 125 g ai/ha, 0 to 100 scale (0 no effect, 100 complete control)
[4] = post-emergence, Postemergence, 500 g ai/ha, 0 to 100 scale (0 no effect, 100 complete control)
[5] = pre-emergence, Preemergence, 125 g ai/ha, 0 to 100 scale where 0 is no effect and 100 is complete control, approximately ten days
[6] = pre-emergence, Preemergence, 500 g ai/ha, 0 to 100 scale where 0 is no effect and 100 is complete control, approximately ten days
[7] = Postemergence, 125 g ai/ha, 0 to 100 scale (0 no effect, 100 complete control)
[8] = Postemergence, 500 g ai/ha, 0 to 100 scale (0 no effect, 100 complete control)
[9] = Preemergence, 125 g ai/ha, 0 to 100 scale where 0 is no effect and 100 is complete control, approximately ten days
[10] = Preemergence, 500 g ai/ha, 0 to 100 scale where 0 is no effect and 100 is complete control, approximately ten days

| Structure (SMILES) | pest or weed control at 125 g/ha [1, 3] [%] | pest or weed control at 500 g/ha [1, 4] [%] | pest or weed control at 125 g/ha [1, 5] [%] | pest or weed control at 500 g/ha [1, 6] [%] | pest or weed control at 125 g/ha [2, 3] [%] | pest or weed control at 500 g/ha [2, 4] [%] | pest or weed control at 125 g/ha [2, 5] [%] | pest or weed control at 500 g/ha [2, 6] [%] | Plant response rating, Barnyardgrass [1, 7] | Plant response rating, Barnyardgrass [1, 8] | Plant response rating, Barnyardgrass [1, 9] | Plant response rating, Barnyardgrass [1, 10] | Plant response rating, Foxtail, Giant [2, 7] | Plant response rating, Foxtail, Giant [2, 8] | Plant response rating, Foxtail, Giant [2, 9] | Plant response rating, Foxtail, Giant [2, 10] |
| --- | --- | --- | --- | --- | --- | --- | --- | --- | --- | --- | --- | --- | --- | --- | --- | --- |
| COC(=O)c1nc(-c2ccc(Cl)cc2)nc(N)c1Cl [Compound 58, methyl 6-amino-5-chloro-2-(4-chlorophenyl)-4-pyrimidinecarboxylate] | 5 | 10 | 0 | 0 | 0 | 50 | 0 | 10 |  |  |  |  |  |  |  |  |
| Nc1nc(C2CC2)nc(C(=O)[O-])c1Br.[Na+] [Compound 113, 6-amino-5-bromo-2-cyclopropyl-4-pyrimidinecarboxylic acid monosodium salt] | 55 | 90 | 25 | 80 | 65 | 85 | 15 | 80 |  |  |  |  |  |  |  |  |
| COC(=O)c1nc(-c2ccc(Br)cc2)nc(N)c1Cl [Compound 96, methyl 6-amino-2-(4-bromophenyl)-5-chloro-4-pyrimidinecarboxylate] | 20 | 25 | 5 | 10 | 25 | 35 | 5 | 10 |  |  |  |  |  |  |  |  |
| Cc1ccc(-c2nc(N)c(Cl)c(C(=O)O)n2)cc1 [Compound 91] |  |  |  |  |  |  |  |  | 75 | 90 | 5 | 80 | 5 | 75 | 0 | 25 |
| COC(=O)c1nc(C2CC2)nc(N)c1OC [Compound 59] | 0 | 30 | 0 | 15 | 0 | 35 | 0 | 0 |  |  |  |  |  |  |  |  |
| COC(=O)c1nc(-c2ccc(Br)cc2)nc(N)c1Br [Compound 129] |  |  |  |  |  |  |  |  | 0 | 0 | 0 | 0 | 0 | 0 | 0 | 0 |
| CNc1nc(C2CC2)nc(C(=O)OC)c1Cl [Compound 79] | 85 | 90 | 30 | 80 | 80 | 90 | 40 | 95 |  |  |  |  |  |  |  |  |
| COC(=O)c1nc(-c2ccc(I)cc2)nc(N)c1Br [Compound 128] |  |  |  |  |  |  |  |  | 0 | 0 | 0 | 0 | 0 | 0 | 0 | 0 |
| CCOC(=O)c1nc(-c2ccc3c(c2)OCO3)nc(N)c1Cl [Compound 74] | 30 | 70 | 0 | 50 | 60 | 70 | 0 | 40 |  |  |  |  |  |  |  |  |
